The test system of assay [1] is Wistar male rats. The experiment in a line: Suppressing effect on increase of blood sugar after oral glucose loading (Test Example 3, glucose oxidase method). In kind it is in vivo, rat. As to conditions: Wistar male rats fasted 24 hours, 1 mg/kg po; for Blood-sugar level, 0 minute: 0 minute (before glucose loading); for Blood-sugar level, 30 minutes after glucose loading: glucose 2 g/kg po. The method, then: Blood-sugar levels of Wistar male rats (10-week old, Charles river) fasted for 24 hours were measured. A test compound was orally administered to the rats in a dose of 1 mg/kg, and then immediately glucose (2 g/kg) was orally administered to the rats. After 30 minutes from the glucose loading, blood-sugar levels were further measured to evaluate suppressing effects of test compounds on increase of blood sugar. The sugar levels were measured by the glucose oxidase method [Clin. Chem., 6, 466 (1960); J. Clin. Path., 22, 246 (1969); Clin. Chem. Acta, 40, 115 (1972); Clin. Chem., 20, 606 (1974) or the like]. The test compounds were dissolved in 0.5% methylcellulose 400 for administration.

The next assay has as its target T1, DPP-IV (Rattus norvegicus, UniProt P14740).
T1 construct: The coagulated blood was centrifuged at 3,000 rpm for 20 minutes to separate serum for use in the experiment; from tissue; host or cells: rat serum (blood from the crural aorta, coagulated and centrifuged)
In words: Test for inhibitory action against DPP-IV (rat serum, Gly-Pro-AMC fluorescence). In kind it is biochemical. Conditions: Gly-Pro-AMC 50 μmol/L, pH 7.8, room temperature 20 minutes. The method, then: Under mild anesthesia with diethylether, a rat was incised at lower left side of the limb, and the crural aorta was cut and blood was collected. The collected blood was immediately ice-cooled. The coagulated blood was centrifuged at 3,000 rpm for 20 minutes to separate serum for use in the experiment. As reaction buffer, an aqueous solution containing HEPES (final concentration of 25 mmol/L) and sodium chloride (final concentration of 140 mmol/L) was prepared so as to give a final pH of 7.8, and used after addition of BSA (final concentration of 1%). An assay was conducted using a black, flat-bottomed 96 well plate. A test sample (2 μL) was added to each well, and the sample was added with rat serum (25 u L) and reaction buffer (25 u L) containing magnesium chloride (80 mmol/L), and the mixture was left stand at room temperature for 5 minutes. Then, a reaction was initiated by the addition of 50 u L of a solution of Gly-Pro-AMC (AMC: 7-amino-4-methylcoumarin) (final concentration of 50 μmol/L) to each well, and the mixture was left stand in the dark at room temperature for 20 minutes. AMC, which was released by DPP-IV activity, was quantified by measurement of fluorescence at 460 nm which was excited at 390 nm. DPP-IV activity was calculated according to the following equation:
Inhibitory activity against DPP-IV=100×{1−(Fs−F0)/(F100−F0)}
F100: Fluorescence intensity of AMC with addition of serum
F0: Fluorescence intensity of AMC without addition of serum
Fs: Fluorescence intensity of AMC with addition of a sample and serum

The test system of assay [2] is Wistar male rats. The experiment in a line: Suppressing effect on increase of blood sugar after oral glucose loading (Test Example 2). As to conditions: Wistar male rats fasted 24 hours, 30 mg/kg po. It is filed as in vivo, rat. How it is done: Blood-sugar levels of Wistar male rats (9-week old, Charles river) fasted for 24 hours were measured. A test compound was orally administered to the rats in a dose of […], and then immediately glucose (2 g/kg) was orally administered to the rats. After 30 minutes from the glucose loading, blood-sugar levels were further measured to evaluate suppressing effects of test compounds on increase of blood sugar. The blood-sugar levels were measured by a portable apparatus for measurement of blood sugar [Blood glucose meter, Dexter-Z (Bayer. Sankyo, Tokyo)]. The test compounds were dissolved in 0.5% methylcellulose 400 for administration. The results are shown in Table 3 (** indicates p<0.01 in Student's t-test).

Counter-ions that a name gives are not always drawn.

T1 sequence (P14740 37-767 limits assumed): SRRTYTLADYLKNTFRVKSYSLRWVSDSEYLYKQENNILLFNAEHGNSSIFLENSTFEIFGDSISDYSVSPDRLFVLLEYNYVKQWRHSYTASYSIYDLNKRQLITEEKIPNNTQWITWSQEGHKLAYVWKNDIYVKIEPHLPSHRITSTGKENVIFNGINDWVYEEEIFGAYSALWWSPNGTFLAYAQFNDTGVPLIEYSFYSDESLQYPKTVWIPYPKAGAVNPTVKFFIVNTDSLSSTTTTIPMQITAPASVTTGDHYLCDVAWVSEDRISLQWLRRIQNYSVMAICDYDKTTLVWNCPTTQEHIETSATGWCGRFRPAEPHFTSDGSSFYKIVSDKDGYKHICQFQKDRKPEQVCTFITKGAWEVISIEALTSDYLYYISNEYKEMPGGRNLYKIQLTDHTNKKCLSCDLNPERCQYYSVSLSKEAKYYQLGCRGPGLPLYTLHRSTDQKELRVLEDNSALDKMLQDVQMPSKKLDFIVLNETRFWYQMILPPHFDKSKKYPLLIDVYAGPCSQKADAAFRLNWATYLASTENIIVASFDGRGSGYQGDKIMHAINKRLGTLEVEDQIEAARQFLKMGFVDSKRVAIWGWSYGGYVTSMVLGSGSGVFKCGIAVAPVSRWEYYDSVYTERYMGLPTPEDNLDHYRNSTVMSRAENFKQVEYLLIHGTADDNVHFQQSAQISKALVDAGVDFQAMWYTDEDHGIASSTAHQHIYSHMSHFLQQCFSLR

`CCN(C)S(=O)(=O)c1ccc(NCC(C)(C)NCC(=O)N2CCC[C@H]2C#N)nc1` [Compound 513, (S)-1-{1-[5-(N-Ethyl-N-methylaminosulfonyl)-2-pyridylamino]-2-methyl-2-propylamino}acetyl-2-pyrrolidinecarbonitrile]: in the assay on Wistar male rats [1], the “Blood-sugar level, 0 minute” value was 109 ± 6 mg/dL and the “Blood-sugar level, 30 minutes after glucose loading” value (“Blood-sugar level, 30 minutes” for short) is on record as 252 ± 22 mg/dL.

Take `N#C[C@@H]1CCCN1C(=O)CNCCNc1cnccn1` [Compound 101, (S)-1-[2-(2-Pyrazinylamino)ethylamino]acetyl-2-pyrrolidinecarbonitrile dimethanesulfonate]: the IC50 (usually the concentration at which inhibition is half-maximal) at DPP-IV came out at 31 nM. Also, in the assay with Wistar male rats [2] (0 minute (before glucose loading)), the “blood sugar level, 0 minute” value worked out at 68 ± 2 mg/dL. For the same compound, in the assay on Wistar male rats [2] (glucose 2 g/kg po, 30 minutes, ** p<0.01 Student's t-test), the “blood sugar level, 30 minutes after glucose loading” value is 104 ± 4** mg/dL.

For the compound `CC1(NCC(=O)N2CCC[C@H]2C#N)CCN(c2ccccn2)CC1` [Compound 238, (S)-1-[4-Methyl-1-(2-pyridyl)-4-piperidylamino]acetyl-2-pyrrolidinecarbonitrile dihydrochloride], at DPP-IV, the IC50 was determined as 11 nM.

On DPP-IV, `N#Cc1ccc(NCC2(NC(=O)CN3CCC[C@H]3C#N)CCCC2)nc1` [Compound 602, 1-[(5-Cyanopyridin-2-ylamino)methyl]-1-[(S)-2-cyanopyrrolidinylacetylamino]cyclopentane fumarate] yielded a half-inhibitory concentration (IC50) of 41 nM.

At DPP-IV, `CC1(NCC(=O)N2CCC[C@H]2C#N)CCN(c2ccc(C#N)cn2)CC1` [Compound 207, (S)-1-[1-(5-Cyano-2-pyridyl)-4-methyl-4-piperidylamino]acetyl-2-pyrrolidinecarbonitrile dihydrochloride] had an IC50 of 15 nM. This IC50 lies about 2.7-fold lower than the previous one.

On DPP-IV, `CC1(NCC(=O)N2CCC[C@H]2C#N)CCN(c2ccc(S(=O)(=O)N3CC=CC3)cn2)CC1` [Compound 529, (S)-1-{4-Methyl-1-[5-(3-pyrrolin-1-ylsulfonyl)-2-pyridyl]-4-piperidylamino}acetyl-2-pyrrolidinecarbonitrile] registered a half-inhibitory concentration (IC50) of 26 nM.

For the compound `CC(C)(CNc1ccc(C(N)=O)cn1)NCC(=O)N1CCC[C@H]1C#N` [Compound 221, (S)-1-[1-(5-Carbamoyl-2-pyridylamino)-2-methyl-2-propylamino]acetyl-2-pyrrolidinecarbonitrile], at DPP-IV, inhibition was half-maximal at 27 nM (IC50).

With `CC(C)(CNc1nccs1)NCC(=O)N1CCC[C@H]1C#N` [Compound 226, (S)-1-[2-Methyl-1-(2-thiazolylamino)-2-propylamino]acetyl-2-pyrrolidinecarbonitrile fumarate], half-maximal inhibition at DPP-IV (IC50) required 18 nM.

In turn, `CC(C)(CNc1ccc(C#N)cc1)NCC(=O)N1CCC[C@H]1C#N` [Compound 703, (S)-1-[1-(4-Cyanoanilino)-2-methyl-2-propylamino]acetyl-2-carbonitrile fumarate] had an IC50 on DPP-IV of 53 nM.

For the compound `N#Cc1cccnc1NCc1ccc(CNCC(=O)N2CCC[C@H]2C#N)cc1` [Compound 201, (S)-1-{4-[(3-Cyano-2-pyridyl)aminomethyl]benzylamino}acetyl-2-pyrrolidinecarbonitrile oxalate], the concentration for half-maximal inhibition (IC50) on DPP-IV came out at 392 nM.

Regarding `CC1(NCC(=O)N2CCC[C@H]2C#N)CCN(c2ncccn2)CC1` [Compound 233, (S)-1-[4-Methyl-1-(2-pyrimidinyl)-4-piperidylamino]acetyl-2-pyrrolidinecarbonitrile], at DPP-IV, the half-inhibitory concentration (IC50) came to 19 nM. In addition, in the assay on Wistar male rats [1], the “Blood-sugar level, 0 minute” value came to 93 ± 15 mg/dL and the “Blood-sugar level, 30 minutes” value is 183 ± 8 mg/dL.

For `CN(C)S(=O)(=O)c1ccc(NCC(C)(C)NCC(=O)N2CCC[C@H]2C#N)nc1` [Compound 501, (S)-1-{1-[5-(N,N-Dimethylaminosulfonyl)-2-pyridylamino]-2-methyl-2-propylamino}acetyl-2-pyrrolidinecarbonitrile], 23 nM corresponded to half-maximal inhibition against DPP-IV (IC50). Further, in the assay on Wistar male rats [1], the “Blood-sugar level, 0 minute” value is reported as 95 ± 7 mg/dL and the “Blood-sugar level, 30 minutes” value stood at 182 ± 16 mg/dL.

`N#C[C@@H]1CCCN1C(=O)CNC1CCN(S(=O)(=O)c2ccccc2)CC1` [Compound 407, (S)-1-(1-Benzenesulfonyl-4-piperidylamino)acetyl-2-carbonitrile methanesulfonate] showed an IC50 on DPP-IV of 20 nM.

As for `N#C[C@@H]1CCCN1C(=O)CNCCNc1cnc2ccccc2n1` [Compound 103, (S)-1-[2-(2-Quinoxalinylamino)ethylamino]acetyl-2-pyrrolidinecarbonitrile dihydrochloride], the half-inhibitory concentration (IC50) against DPP-IV stood at 61 nM. Compared with the last compound, the IC50 is about 3-fold higher.

Take `CC(C)(CNc1ccc(S(=O)(=O)NCCO)cn1)NCC(=O)N1CCC[C@H]1C#N` [Compound 524, (S)-1-{1-{5-[N-(2-Hydroxyethyl)aminosulfonyl]-2-pyridylamino}-2-methyl-2-propylamino}acetyl-2-pyrrolidinecarbonitrile]: the IC50 against DPP-IV stood at 34 nM. This IC50 is about 1.8-fold lower than that of the compound before.

`N#C[C@@H]1CCCN1C(=O)CNCCNC(=O)c1ccccc1` [Compound 403, (S)-1-(2-Benzamidoethylamino)acetyl-2-pyrrolidinecarbonitrile hydrochloride] registered an IC50 against DPP-IV of 124 nM.

Source of the values: patent publication US20040180925A1, “Dipeptidylpeptidase-IV inhibitor” (priority 2000, published 2004).
